Results on six molecules are retold here after ChEMBL document CHEMBL4431377, “Design, Synthesis, and Characterization of Sulfamide and Sulfamate Nucleotidomimetic Inhibitors of hHint1” (ACS Med Chem Lett, 2016).

Data set [1] addresses T1, Adenosine 5'-monophosphoramidase HINT1 (Homo sapiens, UniProt P49773). Description: Binding affinity to His-tagged human full length HINT1 expressed in Rosetta2 pLysS cells by isothermal titration calorimetric assay.
Data set [2] in a line: Aqueous solubility of the compound in aqueous buffer at 5 mM. Type of data set: physicochemical. The settings on record: 5000 µM.
Data set [3] has as its target T1, Adenosine 5'-monophosphoramidase HINT1. Description: Inhibition of His-tagged human full length HINT1 expressed in Rosetta2 pLysS cells using TrpAMP as substrate measured for 2 to 30 mins by fluorescence assay.
The target is the same in data set [4]. Description: Binding affinity to recombinant human HINT1 by isothermal titration calorimetric assay. For orientation: In ITC the heat of successive injections is recorded.
The nature of data set [5]: Stability of the compound in PBS buffer assessed as cyclonucleoside formation at 50 to 100 uM by HPLC analysis. Type of data set: physicochemical.
Data set [6] can be described thus: Aqueous solubility of the compound in aqueous buffer at 20 mM. The class given is physicochemical. To be noted: 20000 µM.

A word on the Kd: it is the concentration at which binding is half-saturated. As usually defined, the IC50 is the concentration at which inhibition is half-maximal. Read a low IC50 as greater potency.

T1 sequence (P49773 whole entry): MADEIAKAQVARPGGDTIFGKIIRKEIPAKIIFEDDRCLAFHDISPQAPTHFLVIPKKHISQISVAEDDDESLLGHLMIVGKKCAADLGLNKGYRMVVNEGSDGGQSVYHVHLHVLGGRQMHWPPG

Molecule `CCN(CC)CC.Nc1nc2c(ncn2[C@@H]2O[C@H](CNS(=O)(=O)NC(=O)CCc3c[nH]c4ccccc34)[C@@H](O)[C@H]2O)c(=O)[nH]1` yielded a Kd in data set [1] of 0.92 µM. Moreover, the solubility result in data set [2] is on record as “Soluble”.

As to `Nc1nc2c(ncn2[C@@H]2O[C@H](COC(=O)NCCc3c[nH]c4ccccc34)[C@@H](O)[C@H]2O)c(=O)[nH]1`, in data set [3], the IC50 amounted to 25.5 µM and the inhibition result is “Dose-dependent effect”. The Kd in data set [4] turned out to be 3.65 µM.

`CCCC(=O)NS(=O)(=O)OC[C@H]1O[C@@H](n2cnc3c(=O)[nH]c(N)nc32)[C@H](O)[C@@H]1O.CCN(CC)CC`: in data set [1], the Kd was 2.9 µM. Moreover, the solubility result in data set [2] is listed as “Soluble”.

For `CCN(CC)CC.O=C(CCc1c[nH]c2ccccc12)NS(=O)(=O)OC[C@H]1O[C@@H](n2cnc3c2ncn2ccnc32)[C@H](O)[C@@H]1O`, the Stability entry in data set [5] is recorded as “Stable”. Further, the solubility result in data set [6] is reported as “Soluble”.

For the molecule `Nc1ncnc2c1ncn2[C@@H]1O[C@H](CNS(=O)(=O)NC(=O)CCCC[C@@H]2SC[C@@H]3NC(=O)N[C@@H]32)[C@@H](O)[C@H]1O`, in data set [3], 1 µM corresponded to half-maximal inhibition (IC50) and the inhibition result was “Dose-dependent effect”. In data set [1], this molecule returned a Kd of 0.32 µM.

In data set [1], `CCN(CC)CC.Nc1nc2c(ncn2[C@@H]2O[C@H](COS(=O)(=O)NC(=O)CCc3c[nH]c4ccccc34)[C@@H](O)[C@H]2O)c(=O)[nH]1` registered a Kd of 0.81 µM. In data set [2], the solubility result is reported as “Soluble”.
